Experimental data from patent EP0099121A2, “Pharmaceutical compositions” (Bristol-Myers Company, priority 1982, dated 1984).

System: Gastric Acid Output
Assay: Gastric antisecretory activity in the Gastric Fistula Rat (Table 2 title: Two-Hour Pylorus Ligated Rat)
Type: in vivo, Long Evans rats
Conditions: Rattus norvegicus, ip; Route of Administration i.p.; numbers in parentheses are the 95% confidence limits; read-out: ED50
Description: Male Long Evans rats weighing about 240-260 grams at the time of cannula implantation are used. The design and implantation of the stainless steel cannula into the anterior wall of the fore-stomach are carried out essentially as described by Pare et al. [Laboratory Animal Science, 27, 244 (1977)]. The fistula components are designed and the operative procedure is carried out exactly as described in the above reference. Post operatively the animals are individually housed in solid bottom cages with sawdust and are allowed food and water ad libitum throughout the entire recovery period. Animals are not used for test purposes for at least 15 days after the operative procedure.
The animals are fasted but allowed water ad libitum for 20 hours before the testing procedure is to begin. Immediately prior to collection, the cannula is opened and the stomach washed gently with 30-40 mL of warm saline or distilled water to remove any residual contents. The catheter is then screwed into the cannula in place of the plugging screw and the rat is placed in a clear plastic rectangular cage measuring 40 cm long, 15 cm wide and 13 cm high. The bottom of the cage has a slit approximately 1.5 cm wide and 25 cm long running down the center to accommodate the catheter which hangs through it. In this way the rat is not restricted and can move freely about the cage during collection periods. The remainder of the assay is carried out as described by Ridley et al. [Research Comm. Chem. Path. Pharm., 17, 365 (1977)].
Gastric secretions collected during the first hour after washing the stomach are discarded as they may be contaminated. For oral evaluation, the catheter is then removed from the cannula and replaced with the plugging screw. Water (2 mL/kg) is administered orally via gastric intubation and the animal is returned to the cage for 45 minutes. After this time the plugging screw is removed and replaced with a catheter to which a small plastic vial has been attached to collect the gastric secretions. A two hour sample is collected (this represents the control secretion), the catheter removed and replaced with the plugging screw. The test drug is now administered orally in a volume of 2 mL/kg via gastric intubation. Forty-five minutes later the plugging screw is again removed, replaced with the catheter attached to a small plastic vial and another 2 hour sample is collected. The secretions in the second sample are compared to those of the control sample in order to determine the effects of the test drug.
When test compounds are to be evaluated parenterally, the animal is injected ip or sc with the test compound vehicle in a volume of 2 mL/kg immediately after discarding the initial 60 minute collection. A two hour sample is collected (control secretion) and the animals are injected either ip or sc with the test compound in a volume of 2 mL/kg. An additional two hour sample is collected and its secretions are compared to those of the control period to determing drug effects.
The samples are centrifuged in a graduated tube for volume determination. Titratable acidity is measured by titrating a one mL sample to pH 7.0 with 0.02N NaOH, using an Autoburet and an electrometric pH meter (Radiometer). Titratable acid output is calculated in microequivalents by multiplying the volume in milliliters by the acid concentration in milliequivalents per liter.
Results are expressed as percent inhibition relative to control readings. Dose response curves are constructed and ED values are calculated by regression analyses. At least three rats are used at each dosage level and a minimum of three dosage levels are utilized for determination of a dose response curve.

Question: `C#CCNC1=NS(=O)(=O)N=C1NCCSCc1nc[nH]c1C` [Example 1, 3-{2-[(5-Methyl-1H-imidazol-4-yl)methylthio}ethylamino}-4-(2-propynyl)amino-1,2,5-thiadiazole 1,1-dioxide] was tested. Which ED50 did it give?
Answer: The ED50 was 12.5 µmol/kg.

Question: For `Cc1[nH]cnc1CSCCNC1=NS(=O)(=O)N=C1O` [Example 7, 3-Hydroxy-4-{2-[(5-methyl-1H-imidazol-4-yl)methylthio]-ethylamino}-1,2,5-thiadiazole 1,1-dioxide], which ED50 is on record?
Answer: The ED50 was 31.1 µmol/kg.

Same assay, conditions: Rattus norvegicus, sc; Route of Administration s.c.; numbers in parentheses are the 95% confidence limits; read-out: ED50

Question: How did the ED50 turn out when `C=CCNC1=NS(=O)(=O)N=C1NCCSCc1ccc(CN(C)C)o1` [Example 19, 3-Allylamino-4-{2-[(5-dimethylaminomethyl-2-furyl)methyl-thio]ethylamino}-1,2,5-thiadiazole 1,1-dioxide] was run?
Answer: The ED50 was 0.34 µmol/kg.

Question: For `C#CCNC1=NS(=O)(=O)N=C1NCCSCc1ccc(CN(C)C)o1` [Example 13, 3-{2-[(5-Dimethylaminomethyl-2-furyl)methvlthio]ethyl-amino}-4-(2-proynyl)amino-1,2,5-thiadiazole 1,1-dioxide], which ED50 is on record?
Answer: The ED50 was 0.46 µmol/kg.

Question: With `CCCNC1=NS(=O)(=O)N=C1NCCSCc1ccc(CN(C)C)o1` [Example 85, 3-{2-[(5-Dimethylaminomethyl-2-furyl)methylthio]ethylamino}-4-propylamino-1,2,5-thiadiazole 1,1-dioxide] as the molecule, how does the ED50 read?
Answer: Its ED50 is 0.14 µmol/kg.

Question: With `CNC1=NS(=O)(=O)N=C1NCCSCc1cccc(CN(C)C)c1` [Example 90, 3-{2-[(3-{Dimethylaminomethyl}phenyl)methylthio]ethylamino}-4-methylamino-1,2,5-thiadiazole 1,1-dioxide] as the molecule, how does the ED50 read?
Answer: The ED50 was 0.86 µmol/kg.

Question: Which ED50 does the source give for `CN(C)Cc1ccc(CSCCNC2=NS(=O)(=O)N=C2NCc2ccccn2)s1` [Example 129, 3-{2-[(5-Dimethylaminomethyl-2-thienyl)methylthio]ethylamino}-4-[(2-pyridyl)methylamino]-1,2,5-thiadiazole 1,1-dioxide] here?
Answer: The ED50 was roughly 1 µmol/kg.

Question: Which ED50 does the source give for `CN(C)Cc1ccc(CCCCNC2=NS(=O)(=O)N=C2N)o1` [Example 93, 3-Amino-4-{4-(5-dimethylaminomethyl-2-furyl)butylamino}-1,2,5-thiaciazole 1,1-dioxide] here?
Answer: The ED50 was 0.14 µmol/kg.

Question: `CN(C)Cc1ccc(CSCCNC2=NS(=O)(=O)N=C2NO)o1` [Example 105, 3-{2-[(5-Dimethylaminomethyl-2-furyl)methylthio]ethy1arnino}-4-hydroxylamino-1,2,5-thiadiazole 1,1-dioxide] was tested. Which ED50 did it give?
Answer: The ED50 was 1.65 µmol/kg.

Question: For `CNc1nc(CSCCNc2n[s+]([O-])nc2N)cs1` (stereo not drawn) [Example 119], which ED50 is on record?
Answer: The ED50 was greater than 10 µmol/kg.

Question: With `Nc1n[s+]([O-])nc1NCCSCc1ccc(CN2CCCCC2)o1` (stereo not drawn) [Example 151, 3-Amino-4-{2-.[(5-piperidinomethyl-2-furyl)methylthio]-ethylamino)-1,2,5-thiadiazole 1-oxide] as the molecule, how does the ED50 read?
Answer: Its ED50 is 0.9 µmol/kg.

Question: Which ED50 does the source give for `CN(C)Cc1ccc(CSCCNC2=NS(=O)(=O)N=C2O)o1` [Example 17, 3-{2-[(5-Dimethylaminomethyl-2-furyl)methylthio]ethylamino}-4-hydroxy^-1,2,5-thiadiazole 1,1-dioxide] here?
Answer: The ED50 was 33 µmol/kg.

Question: How did the ED50 turn out when `CN(C)Cc1nc(CSCCNC2=NS(=O)(=O)N=C2N)cs1` [Example 94, 3-A-mino-4-{2-[(2-dinethylaminomethyl-4-thiazolyl)methylthio)-ethylamino}-1,2,5-thiadiazole 1,1-dioxide] was run?
Answer: The ED50 was 0.44 µmol/kg.

Question: Which ED50 does the source give for `CN(C)Cc1ccc(CSCCNC2=NS(=O)(=O)N=C2NCc2ccccc2)o1` [Example 89, 3-Benzylamino-4-{2-[(5-dimethylaminomethyl-2-furyl)-methylthio]ethylamino}-1,2,5-thiadiazole 1,1-dioxide] here?
Answer: The ED50 was 0.25 µmol/kg.

Question: For `CNC1=NS(=O)(=O)N=C1NCCSCc1csc(N)n1` [Example 122, 3-{2-[(2-Aminothiazol-4-yl)methylthio]ethylamino}-4-methylamino-1,2,5-thiadiazole 1,1-dioxide], which ED50 is on record?
Answer: The ED50 was roughly 10 µmol/kg.

Question: `CNC1=NS(=O)(=O)N=C1NCCCOc1cccc(CN(C)C)c1` [Example 113, 3-[3-(3-Dimethylaminomethylphenoxy)propylamino]-4-methylamino-1,2,5-thiadiazole 1,1-dioxide] was tested. Which ED50 did it give?
Answer: The ED50 was 0.07 µmol/kg.

Question: With `CNC1=NS(=O)(=O)N=C1NCCSCc1cnc(NC(=N)N)s1` [Example 95, 3-{2-[(2-Guanidinothiazol-5-yl)methylthio]ethylamino}-4-methylamino-1,2,5-thiadiazole 1,1-dioxide] as the molecule, how does the ED50 read?
Answer: The ED50 was roughly 15 µmol/kg.

Question: With `NC(N)=Nc1nc(CSCCNc2n[s+]([O-])nc2O)cs1` (stereo not drawn) [Example 116, 3-{2-[(2-Guanidinothiazol-4-yl)methylthylthio]ethylamino}-4-hydroxy-1,2,5-thiadiazole 1-oxide] as the molecule, how does the ED50 read?
Answer: The ED50 was greater than 10 µmol/kg.

Question: For `CNc1n[s+]([O-])nc1NCCSCc1ccc(CN(C)C)s1` (stereo not drawn) [Example 92, 3-{2-[(5-Dimethylaminomethyl-2-thienyl)methylthio]-ethylamino}-4-methylamino-1,2,5-thiadiazole 1-oxide], which ED50 is on record?
Answer: The ED50 was 0.24 µmol/kg.

Question: `CN(C)Cc1ccc(CSCCNC2=NS(=O)(=O)N=C2N)s1` [Example 111, 3-Amino-4-{2-[(5-dimethylaminomethyl-2-thienyl)methylthio]-ethylamino}-1,2,5-thiadiazole 1,1-dioxide] was tested. Which ED50 did it give?
Answer: Its ED50 is 0.64 µmol/kg.

Question: With `CNC1=NS(=O)(=O)N=C1NCCCCc1ccc(CN(C)C)o1` [Example 21, 3-{4-(5-Dimethylaminomethyl-2-furyl)butylamino}-4-methvlamino-1,2,5-thiadiazole 1,1-dioxide] as the molecule, how does the ED50 read?
Answer: Its ED50 is 0.3 µmol/kg.

Question: How did the ED50 turn out when `CN(C)Cc1ccc(CSCCNC2=NS(=O)(=O)N=C2NCc2ccccn2)o1` [Example 104, 3-{2-[(5-Dimethylaminomethyl-2-furyl)methylthio]ethylamino}-4-[(2-pyridyl)methylamino]-1,2,5-thiadiazole 1,1-dioxide] was run?
Answer: The ED50 was 0.61 µmol/kg.

Question: Which ED50 does the source give for `CNC1=NS(=O)(=O)N=C1NCCSCc1nc[nH]c1C` [Example 2] here?
Answer: The ED50 was roughly 100 µmol/kg.

Question: Which ED50 does the source give for `COCCNC1=NS(=O)(=O)N=C1NCCSCc1ccc(CN(C)C)o1` [Example 100, 3-{2-[(5-Dimethylaminomethyl-2-furyl)methylthio]ethylamino}-4-(2-methoxyethylamino)-1,2,5-thiadiazole 1,1-dioxide] here?
Answer: Its ED50 is 1.6 µmol/kg.

Question: Which ED50 does the source give for `CNc1n[s+]([O-])nc1NCCSCc1csc(NC(=N)N)n1` (stereo not drawn) [Example 115, 3-{2-[(2-Guanidinothiazol-4-yl)methylthio]ethylamino}-4-methylamino-1,2,5-thiadiazole 1-oxide] here?
Answer: The ED50 was 0.57 µmol/kg.

Question: `CCCCNC1=NS(=O)(=O)N=C1NCCSCc1ccc(CN(C)C)o1` [Example 103, 3-Butylamino-4-(2-[(5-dimethylaminomethyl-2-furyl)methylthio]-ethylamino}-1,2,5-thiadiazole 1,1-dioxide] was tested. Which ED50 did it give?
Answer: Its ED50 is 0.54 µmol/kg.

Question: How did the ED50 turn out when `CN(C)Cc1ccc(CSCCNC2=NS(=O)(=O)N=C2NCc2ccccc2)s1` [Example 112, 3-Benzylamino-4-(2-[(5-dimethylaminomethyl-2-thienyl)-methylthio]ethylamino}-1,2,5-thiadiazole 1,1-dioxide] was run?
Answer: The ED50 was 1.2 µmol/kg.

Question: For `CNC1=NS(=O)(=O)N=C1NCCSCc1cnc(CN(C)C)s1` [Example 114, 3-{2-[(2-Dimethylaminomethylthiazol-5-yl)methylthio]-ethylamino}-4-methylamino-1,2,5-thiadiazole 1,1-dioxide], which ED50 is on record?
Answer: Its ED50 is roughly 15 µmol/kg.

Question: Which ED50 does the source give for `CNC1=NS(=O)(=O)N=C1NCCSCc1csc(N=C2NCCN2)n1` [Example 128, 3-{2-[(2-{2-Imidazolidinyl}iminothiazol-4-yl)methylthio]-ethylamino}-4-methy1amino-1,2,5-thiadiazole 1,1-dioxide] here?
Answer: Its ED50 is roughly 10 µmol/kg.

Question: For `CN(C)Cc1ccc(CSCCNC2=NS(=O)(=O)N=C2N2CCCC2)o1` [Example 101, 3-{2-[(5-Dimethylaminomethyl-2-furyl)methylthio]ethylamino}-4-pyrrolidino-1,2,5-thiadiazole 1,1-dioxide], which ED50 is on record?
Answer: Its ED50 is 68 µmol/kg.

Same assay, conditions: Route of Administration s.c.; numbers in parentheses are the 95% confidence limits

Question: How did the ED50 turn out when `NC1=NS(=O)(=O)N=C1NCCCOc1cccc(CN2CCOCC2)c1` [146 d] was run?
Answer: The ED50 was 0.28 (0.066-1.21) μmoles/kg.

Question: How did the ED50 turn out when `CC1CCN(Cc2cccc(OCCCNc3n[s+]([O-])nc3N)c2)CC1` (stereo not drawn) [145 b] was run?
Answer: The ED50 was roughly 0.06 µmol/kg.

Question: With `CNC1=NS(=O)(=O)N=C1NCCCOc1cccc(CN2CCC(C)CC2)c1` [144 b] as the molecule, how does the ED50 read?
Answer: The ED50 was 0.025 (0.0087-0.065) μmoles/kg.
